Our source for the GI50 and TGI values is PubChem BioAssay (NCI).

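Five concentrations, 48 hours, 96-well plates. The concentration for 50% growth inhibition is given as GI50. At the TGI there is no net growth.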

Among the test systems are KM12 colon; MOLT-4 leukemia; TK-10 renal; COLO 205 colon; UACC-62 melanoma; HOP-92 NSCLC; NCI-H522 lung; SF-539 CNS; NCI-H226 lung; HCC-2998 colon.
Test in all cases: DTP human tumour cell line panel, 48 h

For the molecule `Nc1nc(Cl)cc2c1ncn2C1OC(CO)C(O)C1O` (configuration not stated), the GI50 in the assay on KM12 colon, with MOLT-4 leukemia, in the assay on TK-10 renal, in the assay on COLO 205 colon, in the assay on UACC-62 melanoma and in the assay on HOP-92 NSCLC was greater than 100 µM each time. In addition, the GI50 in the assay on NCI-H522 lung and in the assay with SF-539 CNS was greater than 100 µM in each case. Also, the concentration for total growth inhibition (TGI) in the assay with KM12 colon, in the assay on MOLT-4 leukemia, in the assay on TK-10 renal, in the assay on COLO 205 colon, with UACC-62 melanoma and in the assay on HOP-92 NSCLC was greater than 100 µM throughout. The TGI with NCI-H522 lung and in the assay with SF-539 CNS was greater than 100 µM in each case.

Consider `O=C(CCCCCn1c2ccccc2c2c3c(c4c5ccccc5[nH]c4c21)C(=O)N(O)C3=O)N1CCOCC1`, for which the GI50 with KM12 colon was 2.14 µM; with NCI-H226 lung, 2.58 µM; in the assay with MOLT-4 leukemia, 1.88 µM; with TK-10 renal it was 2.03 µM; in the assay on COLO 205 colon, 2.3 µM; in the assay on UACC-62 melanoma, 2.05 µM. Moreover, the figures for the GI50 in the assay on NCI-H522 lung and in the assay on HCC-2998 colon were 1.38 µM and 1.85 µM, respectively. In addition, the total growth inhibition concentration (TGI) in the assay with KM12 colon is 5.03 µM; in the assay with NCI-H226 lung it was 6.51 µM; in the assay on MOLT-4 leukemia, 5.36 µM; in the assay on TK-10 renal, 5.72 µM; in the assay with COLO 205 colon it was 5.65 µM; with UACC-62 melanoma, 5.4 µM. Also, the TGI with NCI-H522 lung was found to be 3.14 µM; in the assay with HCC-2998 colon, 3.54 µM.

`CC(C)CCC[C@@H](C)C1CCC2[C@@H]3CC=C4C[C@@H](OC(=O)CCC(=O)NCC[N+](C)(C)CCCS(=O)(=O)[O-])CC[C@]4(C)C3CC[C@@]21C` (some centres not stated): the TGI with KM12 colon came out at 37.9 µM; in the assay on NCI-H226 lung, 50.5 µM; in the assay on MOLT-4 leukemia, 39.7 µM; in the assay with COLO 205 colon, 40.3 µM; in the assay on UACC-62 melanoma it was 50.3 µM; in the assay on NCI-H522 lung, 73 µM. The TGI was 31.4 µM in the assay on SF-539 CNS and 37.5 µM in the assay with HCC-2998 colon.

For the molecule `Cc1cc(C)c(-c2noc(-c3ccc(Cl)cc3)c2C2=NCCN2)c(C)c1`, the TGI in the assay on KM12 colon was determined as 54 µM; with NCI-H226 lung it was 68.3 µM; in the assay on MOLT-4 leukemia, 41.3 µM; in the assay on COLO 205 colon, 35.2 µM; with UACC-62 melanoma, 33.8 µM; with SF-539 CNS, 32 µM. In the assay on HCC-2998 colon, this molecule yielded a total growth inhibition concentration (TGI) of 36 µM.

As for `COc1ccc2c(c1)C(CCN)C(=O)N2` (configuration not stated), the TGI in the assay with KM12 colon, in the assay with MOLT-4 leukemia, with TK-10 renal, in the assay on COLO 205 colon, with UACC-62 melanoma and with HOP-92 NSCLC was greater than 100 µM throughout. Besides, the total growth inhibition concentration (TGI) with SF-539 CNS and with HCC-2998 colon was greater than 100 µM each time.

For `O=C1/C=C(/c2ccc(O)cc2)[C@H](O)Cc2ccc(OC3OC(CO)C(O)C(O)C3O)cc2O1` (some centres not stated) (tested in a mixture with another compound), the TGI in the assay with KM12 colon, with NCI-H226 lung, in the assay on TK-10 renal, in the assay on COLO 205 colon, with UACC-62 melanoma and in the assay on NCI-H522 lung was greater than 100 µM in each case. For the same molecule, the TGI with SF-539 CNS was greater than 100 µM.

On to `CCC(C)CNC1=C(NC(C)=O)C(=O)c2ccccc2C1=O` (configuration not stated), for which the TGI in the assay on KM12 colon, in the assay with NCI-H226 lung, with MOLT-4 leukemia, in the assay with TK-10 renal, with COLO 205 colon and with UACC-62 melanoma was greater than 100 µM in each case. Also, the TGI in the assay on NCI-H522 lung, in the assay with SF-539 CNS and in the assay on HCC-2998 colon was greater than 100 µM throughout.

Regarding `N#CC1=C(N)NC(=S)NC1c1ccc(-c2ccc(-c3nc4ccccc4s3)cc2)o1` (configuration not stated), the GI50 was 17 µM in the assay on KM12 colon; 37.9 µM with TK-10 renal; 17.4 µM with COLO 205 colon; 16.1 µM in the assay on UACC-62 melanoma; greater than 50 µM with HOP-92 NSCLC; 40.3 µM in the assay with NCI-H522 lung. The GI50 in the assay with SF-539 CNS is 15.2 µM. Moreover, the total growth inhibition concentration (TGI) in the assay with KM12 colon, in the assay on TK-10 renal, in the assay on COLO 205 colon, in the assay on UACC-62 melanoma, with HOP-92 NSCLC and in the assay with NCI-H522 lung was greater than 50 µM in each case. The TGI with SF-539 CNS came to 31.7 µM.

`COc1cc(Oc2cnc3cc(N)cc(N)c3n2)cc(OC)c1OC`: the GI50 with KM12 colon is 24.9 µM; with NCI-H226 lung, 45.6 µM; with MOLT-4 leukemia it was 20.2 µM; with TK-10 renal, 33.3 µM; in the assay on COLO 205 colon, 27.8 µM; in the assay on UACC-62 melanoma, 35.4 µM. Besides, the GI50 in the assay on NCI-H522 lung was greater than 100 µM; in the assay with SF-539 CNS, 46.2 µM; in the assay on HCC-2998 colon, 15.6 µM. Besides, the TGI is greater than 100 µM in the assay on KM12 colon; greater than 100 µM with NCI-H226 lung; 51.9 µM in the assay on MOLT-4 leukemia; greater than 100 µM with TK-10 renal; 71.6 µM with COLO 205 colon; greater than 100 µM in the assay on UACC-62 melanoma. For the same molecule, the total growth inhibition concentration (TGI) in the assay with NCI-H522 lung is greater than 100 µM; in the assay on SF-539 CNS it was greater than 100 µM; with HCC-2998 colon it was 32.2 µM.

Regarding `COc1ccccc1NC(=O)CC(=O)NNCC(=O)Nc1nc(-c2ccccc2)cs1`, the TGI in the assay with KM12 colon, in the assay on NCI-H226 lung, in the assay with MOLT-4 leukemia, in the assay with TK-10 renal, in the assay with COLO 205 colon and with UACC-62 melanoma was greater than 100 µM throughout. Also, the TGI in the assay on NCI-H522 lung and with SF-539 CNS was greater than 100 µM throughout.

Turning to `COC(=O)C1=C(SC)SC2(C(=O)OC)C3C=C(C)C4C(N13)C42C(=O)OC` (configuration not stated), the concentration for total growth inhibition (TGI) in the assay with NCI-H226 lung, with MOLT-4 leukemia, with TK-10 renal, with COLO 205 colon, in the assay on UACC-62 melanoma and in the assay with NCI-H522 lung was greater than 100 µM each time. Besides, the concentration for total growth inhibition (TGI) with SF-539 CNS and in the assay on HCC-2998 colon was greater than 100 µM in each case.

`c1cc(C2O[C@H]3CCCN3[C@@H]2c2ccncc2)ccn1` (some centres not stated): the TGI in the assay on KM12 colon, in the assay with NCI-H226 lung, in the assay on MOLT-4 leukemia, in the assay with TK-10 renal, in the assay with COLO 205 colon and in the assay with UACC-62 melanoma was greater than 100 µM throughout. In addition, the TGI with NCI-H522 lung and in the assay with SF-539 CNS was greater than 100 µM each time.

The GI50 is the concentration at which growth is held to half of that of the control. One may read the TGI as the concentration at which net growth stops.
